In ChEMBL document CHEMBL4038312 (J Med Chem, 2017):
Values after ≈ are worked out from the molar mass of the structure shown.

Assays:
[1] = physchem; conditions: octanol/water, pH 7.4
[2] = Volume of distribution at steady state in rat at 1 mg/kg, iv; type: ADME, organism-based; conditions: in vivo, read-out: Vdss
[3] = Cmax in dog at […], po; type: ADME, organism-based, Canis lupus familiaris; set-up: dose 0.13 mg/kg, route oral; conditions: in vivo
[4] = Solubility of the compound at pH 6.5; type: physicochemical; conditions: buffer
[5] = Permeability in RRCK cells; type: ADME, cell-based, Canis lupus familiaris, MDCKII-LE; conditions: dog, MDCK; read-out: permeability
[6] = Volume of distribution at steady state in dog at 0.1 mg/kg, iv; type: ADME, organism-based, Canis lupus familiaris; conditions: in vivo, read-out: Vdss
[7] = AUC (0 to infinity) in dog at […], po; type: ADME, organism-based, Canis lupus familiaris; set-up: dose 0.13 mg/kg, time infinity, route oral; conditions: in vivo
[8] = Oral bioavailability in dog at […]; type: ADME, organism-based, Canis lupus familiaris; conditions: in vivo
[9] = physchem
[10] = Apparent permeability from apical to basolateral side in MDCK cells harboring MDR1; type: ADME, cell-based, Canis lupus familiaris; conditions: dog
[11] = Apparent permeability from basolateral to apical side in MDCK cells harboring MDR1; type: ADME, cell-based, Canis lupus familiaris; conditions: dog
[12] = Cmax in rat at 3 mg/kg, po; type: ADME, organism-based; set-up: dose 3 mg/kg, route oral; conditions: in vivo
[13] = Cmax in dog at 3 mg/kg, po; type: ADME, organism-based, Canis lupus familiaris; set-up: dose 3 mg/kg, route oral; conditions: in vivo
[14] = Tmax in rat at 3 mg/kg, po; type: ADME, organism-based; conditions: in vivo
[15] = Tmax in dog at 3 mg/kg, po; type: ADME, organism-based, Canis lupus familiaris; conditions: in vivo
[16] = Volume of distribution at steady state in human at 100 ug, iv; type: ADME; conditions: in vivo, read-out: Vdss
[17] = Cmax in human at 100 ug, po; type: ADME; set-up: dose 100 ug, route oral; conditions: in vivo
[18] = Oral bioavailability in human at 100 ug; type: ADME, organism-based; conditions: in vivo
[19] = tested on: Homo sapiens; experiment: Unbound Cmax in human at 2400 mg, po; type: ADME; conditions: in vivo
[20] = Dissociation constant, pKa of the compound; type: physicochemical
[21] = Oral bioavailability in dog at 3 mg/kg; type: ADME, organism-based, Canis lupus familiaris; conditions: in vivo
[22] = in vivo; conditions: rat, po, 3 mg/kg
[23] = AUC (0 to infinity) in rat at 3 mg/kg, po; type: ADME, organism-based; set-up: dose 3 mg/kg, time infinity, route oral; conditions: in vivo
[24] = Basic dissociation constant, pKa of the compound; type: physicochemical
[25] = Drug excretion in iv dosed bile duct cannulated rat bile after 6 hrs; type: ADME, organism-based; conditions: read-out: Drug excretion

Compound: N#Cc1cc(S(=O)(=O)Nc2ncns2)ccc1Oc1ccc(C(F)(F)F)cc1-c1ccncn1
- logD [1]: 0.9

Compound: CN1CC(n2nccc2-c2cc(Cl)ccc2Oc2cc(F)c(S(=O)(=O)Nc3cscn3)cc2F)C1
- logD [1]: 1.3

Compound: N#Cc1cc(S(=O)(=O)Nc2ncns2)ccc1Oc1ccc(Cl)cc1-c1cn[nH]c1
- Vd [2]: 2.3 L/kg
- Cmax [3]: 18 ng/mL
- solubility [4]: 259 µM (≈ 119 µg/mL)
- Papp [5]: 2.1 ×10⁻⁶ cm/s
- Vd [6]: 0.5 L/kg
- AUC(0-inf) [7]: 40 ng·h/mL
- bioavailability [8]: 23%
- logD [1]: 1.7
- pKa [9]: 3.5

Compound: CN1CC(n2nccc2-c2cc(Cl)ccc2Oc2cc(F)c(S(=O)(=O)Nc3ncns3)cc2F)C1
- logD [1]: 1

Compound: Cn1nccc1-c1cc(Cl)ccc1Oc1cc(F)c(S(=O)(=O)Nc2ncns2)cc1F
- pKa [9]: 3.5

Compound: Cn1nccc1-c1cc(Cl)ccc1Oc1ccc(S(=O)(=O)Nc2ncns2)cc1F
- pKa [9]: 3.5

Compound: Nc1[nH]ncc1-c1cc(Cl)ccc1Oc1cc(F)c(S(=O)(=O)Nc2cscn2)cc1Cl [PF-05089771]
- solubility [4]: < 0.3 µM
- Papp [5]: 3.8 ×10⁻⁶ cm/s
- Papp A→B [10]: 0.7 ×10⁻⁶ cm/s
- Papp B→A [11]: 6.3 ×10⁻⁶ cm/s
- Vd [6]: 0.2 L/kg
- Cmax [12]: 541 ng/mL
- Cmax [13]: 998 ng/mL
- Tmax [14]: 2 h
- Tmax [15]: 0.9 h
- Vd [16]: 0.15 L/kg
- Cmax [17]: 11 ng/mL
- bioavailability [18]: 110%
- fCmax [19]: 226 nM
- logD [1]: 2.3 to 2.6
- pKa [9]: 6.3

Compound: N#Cc1cc(S(=O)(=O)Nc2ncns2)ccc1Oc1ccc(C(F)(F)F)cc1-c1cccnn1
- logD [1]: 0.7

Compound: O=S(=O)(Nc1cscn1)c1cc(Cl)c(Oc2ccc(C(F)(F)F)cc2-c2ccnnc2)cc1F
- pKa [20]: 5.6
- logD [1]: 1.6

Compound: Cn1nccc1-c1cc(Cl)ccc1Oc1ccc(S(=O)(=O)Nc2ncns2)cc1C#N
- pKa [9]: 3.5

Compound: N#Cc1cc(S(=O)(=O)Nc2ncns2)ccc1Oc1ccc(Cl)cc1-c1ccnc(N)c1
- logD [1]: 1.6

Compound: Nc1n[nH]cc1-c1cc(C(F)(F)F)ccc1Oc1cc(F)c(S(=O)(=O)Nc2cscn2)cc1Cl
- logD [1]: 2.2
- pKa [9]: 6.3

Compound: N#Cc1cc(S(=O)(=O)Nc2ncns2)ccc1Oc1ccc(Cl)cc1-c1cn[nH]c1N
- logD [1]: 1

Compound: O=S(=O)(Nc1nncs1)c1cc(Cl)c(Oc2ccc(C(F)(F)F)cc2-c2ccnnc2)cc1F [PF-05186462]
- Vd [2]: 11 L/kg
- solubility [4]: 286 µM (≈ 152 µg/mL)
- Papp [5]: 0.7 ×10⁻⁶ cm/s
- Papp A→B [10]: < 0.5 ×10⁻⁶ cm/s
- Papp B→A [11]: 1.1 ×10⁻⁶ cm/s
- Vd [6]: 0.5 L/kg
- Cmax [12]: 73.2 ng/mL
- Cmax [13]: 2890 ng/mL
- bioavailability [21]: 54%
- Tmax [14]: 1.5 h
- Tmax [15]: 1.5 h
- pKa [20]: 4
- Vd [16]: 0.18 L/kg
- Cmax [17]: 4.8 ng/mL
- bioavailability [18]: 101%
- bioavailability [22]: 16%
- logD [1]: 0.8 to 0.9
- pKa [9]: 4.3

Compound: Cc1[nH]ncc1-c1cc(C(F)(F)F)ccc1Oc1ccc(S(=O)(=O)Nc2ncns2)cc1C#N
- Vd [2]: 6.3 L/kg
- AUC(0-inf) [23]: 26 ng·h/mL
- solubility [4]: > 300 µM
- Papp [5]: 1.1 ×10⁻⁶ cm/s
- Vd [6]: 1.8 L/kg
- Cmax [12]: 4 ng/mL
- bioavailability [22]: < 5%
- logD [1]: 2
- pKa [9]: 3.5

Compound: Cn1nccc1-c1cc(Cl)ccc1Oc1cc(F)c(S(=O)(=O)Nc2nncs2)cc1Cl
- pKa [9]: 4.5

Compound: CCN1CC(n2nccc2-c2cc(Cl)ccc2Oc2ccc(S(=O)(=O)Nc3cscn3)cc2C#N)C1 [PF-05150122]
- Vd [2]: 29.7 L/kg
- solubility [4]: > 262 µM
- Papp [5]: 3.2 ×10⁻⁶ cm/s
- pKa [24]: 7.4
- Papp A→B [10]: < 0.5 ×10⁻⁶ cm/s
- Papp B→A [11]: 11 ×10⁻⁶ cm/s
- Vd [6]: 0.9 L/kg
- Cmax [12]: 92.7 ng/mL
- Tmax [14]: 0.3 h
- Vd [16]: 0.41 L/kg
- Cmax [17]: 0.67 ng/mL
- bioavailability [18]: 52%
- bioavailability [22]: 68%
- logD [1]: 1.4
- pKa [9]: 6.5

Compound: CCN1CC(n2nccc2-c2cc(Cl)ccc2Oc2cc(F)c(S(=O)(=O)Nc3cscn3)cc2F)C1
- logD [1]: 1.6

Compound: Cn1nccc1-c1cc(Cl)ccc1Oc1ccc(S(=O)(=O)Nc2nncs2)cc1C#N
- pKa [9]: 4.5

Compound: N#Cc1cc(S(=O)(=O)Nc2ncns2)ccc1Oc1ccc(C(F)(F)F)cc1-c1ccnnc1
- Vd [2]: 1.3 L/kg
- AUC(0-inf) [23]: 5 ng·h/mL
- solubility [4]: > 300 µM
- Papp [5]: 0.7 ×10⁻⁶ cm/s
- Vd [6]: 1.2 L/kg
- Cmax [12]: 1 ng/mL
- dose excreted at 6 h [25]: 73%
- bioavailability [22]: < 1%
- logD [1]: 0.7

Compound: N#Cc1cc(S(=O)(=O)Nc2ncns2)ccc1Oc1ccc(Cl)cc1-c1ccn[nH]1
- logD [1]: 1.6
